Source: paper PMC6271338, “Synthesis and Cytotoxic Evaluation of Alkoxylated Chalcones” (Molecules, 2014)

Legend:
MCF-7 cells = test: In vitro anti-proliferative SRB assay, MCF-7; type: cell-based, human; conditions: for IC50: Homo sapiens, MCF7, increasing concentrations up to 30 μM, mean ± SD of at least three independent experiments; for SI (CC50 HMLE/IC50 MCF7) / SI (CC50 L02/IC50 MCF7): selectivity index; for SI (CC50 HMLE/IC50 MCF7): HMLE vs MCF7; for SI (CC50 L02/IC50 MCF7): L02 vs MCF7
Method: (§1) HepG2 and MCF7 cells were grown in the Eagle’s minimum essential medium with Earle’s balanced salts (MEM-EBSS) medium, HeLa, A549 and L02 cells were grown in Dulbecco’s Modified Eagle Media (DMEM), SW1990 cells were grown in RPMI-1640 medium, and HMLE cell were grown in DMEM/F-12 medium. […]
(§2) Cells were seeded into 96-well plates (4000 cells/well) and incubated at 37 °C in a humidified 5% CO2 atmosphere. After 24 h, the cells were treated with different concentrations of the compounds for 48 h in triplicate to generate dose-response curves. Cell viability was evaluated using the sulforhodamine B (SRB) assay as previous described.

HepG2 cells = test: In vitro anti-proliferative SRB assay, HepG2; type: cell-based, human; conditions: for IC50: Homo sapiens, HepG2, increasing concentrations up to 30 μM, mean ± SD of at least three independent experiments; for SI (CC50 HMLE/IC50 HepG2) / SI (CC50 L02/IC50 HepG2): selectivity index; for SI (CC50 HMLE/IC50 HepG2): HMLE vs HepG2; for SI (CC50 L02/IC50 HepG2): L02 vs HepG2
Method: as §1, §2

[1] = Cytotoxicity (SRB) against non-tumoral L02 cells; type: cell-based, human; conditions: human, L02 cells (non-tumoral human liver cell line); increasing concentrations up to 100 μM; mean ± SD of at least three independent experiments; read-out: Normal Human Cell Lines, CC50, L02
Method: (§3) All compounds were also evaluated for their cytotoxic activity against two non-tumoral human cell lines named human mammary epithelial cell (HMLE) and L02 (a human liver cell line) in Table 2 and SI values between the CC50 in non-tumoral cell lines and IC50 in tumoral cells calculated.
as §1
as §2, with “described. […] Etoposide was used as the positive control.” for “described.”

HeLa cells = test: In vitro anti-proliferative SRB assay, HeLa; type: cell-based, human; conditions: for IC50: Homo sapiens, HeLa, increasing concentrations up to 30 μM, mean ± SD of at least three independent experiments; for SI (CC50 HMLE/IC50 Hela) / SI (CC50 L02/IC50 Hela): selectivity index; for SI (CC50 HMLE/IC50 Hela): HMLE vs HeLa; for SI (CC50 L02/IC50 Hela): L02 vs HeLa
Method: as §1, §2

[2] = Cytotoxicity (SRB) against non-tumoral HMLE cells; type: cell-based, human; conditions: human, HMLE cells (non-tumoral human mammary epithelial cells); increasing concentrations up to 100 μM; mean ± SD of at least three independent experiments; read-out: Normal Human Cell Lines, CC50, HMLE
Method: as §3, §1
as §2, with “described. […] Etoposide was used as the positive control.” for “described.”

SW1990 cells = test: In vitro anti-proliferative SRB assay, SW1990; type: cell-based, human; conditions: for IC50: Homo sapiens, SW1990, increasing concentrations up to 30 μM, mean ± SD of at least three independent experiments; for SI (CC50 HMLE/IC50 SW1990) / SI (CC50 L02/IC50 SW1990): selectivity index; for SI (CC50 HMLE/IC50 SW1990): HMLE vs SW1990; for SI (CC50 L02/IC50 SW1990): L02 vs SW1990
Method: as §1, §2

A549 cells = test: In vitro anti-proliferative SRB assay, A549; type: cell-based, human; conditions: for IC50: Homo sapiens, A549, increasing concentrations up to 30 μM, mean ± SD of at least three independent experiments; for SI (CC50 HMLE/IC50 A549) / SI (CC50 L02/IC50 A549): selectivity index; for SI (CC50 HMLE/IC50 A549): HMLE vs A549; for SI (CC50 L02/IC50 A549): L02 vs A549
Method: as §1, §2

| IC50 (MCF-7 cells) | IC50 (HepG2 cells) | IC50 (HeLa cells) | IC50 (SW1990 cells) | IC50 (A549 cells) | melting point | Structure (SMILES) | SI (CC50 HMLE/IC50 MCF7) (MCF-7 cells) | SI (CC50 L02/IC50 MCF7) (MCF-7 cells) | SI (CC50 HMLE/IC50 HepG2) (HepG2 cells) | SI (CC50 L02/IC50 HepG2) (HepG2 cells) | CC50 at 48 h [1] | SI (CC50 HMLE/IC50 Hela) (HeLa cells) | SI (CC50 L02/IC50 Hela) (HeLa cells) | CC50 at 48 h [2] | SI (CC50 HMLE/IC50 SW1990) (SW1990 cells) | SI (CC50 L02/IC50 SW1990) (SW1990 cells) | SI (CC50 HMLE/IC50 A549) (A549 cells) | SI (CC50 L02/IC50 A549) (A549 cells) |
| --- | --- | --- | --- | --- | --- | --- | --- | --- | --- | --- | --- | --- | --- | --- | --- | --- | --- | --- |
| 11.59 ± 0.07 µM | 7.71 ± 0.21 µM | 12.2 ± 0.25 µM | 10.68 ± 0.08 µM | 13.2 ± 0.43 µM | 63.1 to 64.8 °C | CCOc1cccc(C(=O)/C=C/c2c(OC)cccc2OC)c1 [b9, (E)-1-(3-Ethoxyphenyl)-3-(2,6-dimethoxyphenyl)prop-2-en-1-one] | 0.8 | 1.5 | 1.2 | 2.3 | 17.4 ± 5.96 µM | 0.8 | 1.4 | 9.58 ± 0.44 µM | 0.9 | 1.6 | 0.7 | 1.3 |
| 19.8 ± 0.69 µM | 10.9 ± 0.46 µM | 14.4 ± 0.15 µM | 19.5 ± 0.23 µM | 22.7 ± 0.57 µM | 99 to 101.2 °C | CCOc1ccc(C(=O)/C=C/c2c(OC)cccc2OC)cc1 [b10, (E)-1-(4-Ethoxyphenyl)-3-(2,6-dimethoxyphenyl)prop-2-en-1-one] | 0.7 | 1.9 | 1.3 | 3.4 | 36.7 ± 3.41 µM | 1.0 | 2.6 | 13.8 ± 3.77 µM | 0.7 | 1.9 | 0.6 | 1.6 |
| 29.03 ± 0.09 µM | 23.6 ± 0.84 µM | 25.6 ± 1.16 µM | 22.3 ± 0.07 µM | 13.25 ± 0.02 µM | 108.8 to 110.2 °C | COc1cccc(OC)c1/C=C/C(=O)c1cccc(OCc2ccccc2)c1 [b12, (E)-1-(3-(Benzyloxy)phenyl)-3-(2,6-dimethoxyphenyl)prop-2-en-1-one] | 1.1 | >3.4 | 1.3 | >4.2 | > 100 µM | 1.2 | >3.9 | 31.4 ± 1.12 µM | 1.4 |  | 2.4 |  |
| > 30 µM | > 30 µM | > 30 µM | > 30 µM | > 30 µM | 82.2 to 83.6 °C | COc1ccc(C(=O)/C=C/c2c(OC)cccc2OC)c(OCc2ccccc2)c1 [b14, (E)-1-(2-(Benzyloxy)-4-methoxyphenyl)-3-(2,6-dimethoxyphenyl)prop-2-en-1-one] |  |  |  |  | > 100 µM |  |  | > 100 µM |  |  |  |  |
| > 30 µM | > 30 µM | > 30 µM | > 30 µM | > 30 µM | 112.8 to 114.1 °C | COc1cc(C(=O)/C=C/c2c(OC)cccc2OC)ccc1OCc1ccccc1 [b15, (E)-1-(4-(Benzyloxy)-3-methoxyphenyl)-3-(2,6-dimethoxyphenyl)prop-2-en-1-one] |  |  |  |  | > 100 µM |  |  | > 100 µM |  |  |  |  |
| 7.74 ± 0.1 µM | 12 ± 0.23 µM | 8.54 ± 0.14 µM |  | 9.33 ± 0.3 µM | 98.7 to 100.2 °C | CCOc1cc(OC)ccc1C(=O)/C=C/c1c(OC)cccc1OC [b17, (E)-1-(2-Ethoxy-4-methoxyphenyl)-3-(2,6-dimethoxyphenyl)prop-2-en-1-one] | 1.2 | 1.4 | 0.8 | 0.9 | 10.9 ± 0.42 µM | 1.1 | 1.3 | 9.03 ± 0.8 µM | 0.8 | 1.0 | 1.0 | 1.2 |

Further lines, the compound ahead of its results:

| Structure (SMILES) | IC50 (MCF-7 cells) | IC50 (HepG2 cells) | IC50 (HeLa cells) | IC50 (SW1990 cells) | IC50 (A549 cells) | melting point | SI (CC50 HMLE/IC50 MCF7) (MCF-7 cells) | SI (CC50 L02/IC50 MCF7) (MCF-7 cells) | SI (CC50 HMLE/IC50 HepG2) (HepG2 cells) | SI (CC50 L02/IC50 HepG2) (HepG2 cells) | CC50 at 48 h [1] | SI (CC50 HMLE/IC50 Hela) (HeLa cells) | SI (CC50 L02/IC50 Hela) (HeLa cells) | CC50 at 48 h [2] | SI (CC50 HMLE/IC50 SW1990) (SW1990 cells) | SI (CC50 L02/IC50 SW1990) (SW1990 cells) | SI (CC50 HMLE/IC50 A549) (A549 cells) | SI (CC50 L02/IC50 A549) (A549 cells) |
| --- | --- | --- | --- | --- | --- | --- | --- | --- | --- | --- | --- | --- | --- | --- | --- | --- | --- | --- |
| COc1cccc(OC)c1/C=C/C(=O)c1ccc(C)c(C)c1 [b5, (E)-1-(3,4-Dimethylphenyl)-3-(2,6-dimethoxyphenyl)prop-2-en-1-one] | 30.31 ± 0.29 µM | 26.8 ± 0.3 µM | 20.3 ± 1.01 µM | > 30 µM | > 30 µM | 98.9 to 101.1 °C | 0.5 | 0.8 | 0.6 | 0.9 | 25.2 ± 2.71 µM | 0.8 | 1.2 | 15.7 ± 0.76 µM | <0.5 | <0.8 | <0.5 | <0.8 |
| COc1cccc(C(=O)/C=C/c2c(OC)cccc2OC)c1 [b7, (E)-1-(3-Methoxyphenyl)-3-(2,6-dimethoxyphenyl)prop-2-en-1-one] | 6.37 ± 0.05 µM | 6.97 ± 0.55 µM | 9.98 ± 0.37 µM | 15.6 µM | 14 ± 0.19 µM | 93.5 to 95.6 °C | 1.3 | 2.8 | 1.2 | 2.6 | 18.1 ± 5.82 µM | 0.8 | 1.8 | 8.14 ± 0.53 µM | 0.5 | 1.2 | 0.6 | 1.3 |
| COc1cccc(OC)c1/C=C/C(=O)c1ccc(OCc2ccccc2)cc1 [b13, (E)-1-(4-(Benzyloxy)phenyl)-3-(2,6-dimethoxyphenyl)prop-2-en-1-one] | > 30 µM | 21.8 ± 0.62 µM | > 30 µM | > 30 µM | > 30 µM | 96.6 to 97.8 °C |  |  | >4.6 | >4.6 | > 100 µM |  |  | > 100 µM |  |  |  |  |
| COc1ccc(C(=O)/C=C/c2c(OC)cccc2OC)cc1OC [b19, (E)-1-(3,4-Dimethoxyphenyl)-3-(2,6-dimethoxyphenyl)prop-2-en-1-one] | 19.7 ± 0.2 µM | 7.12 ± 0.67 µM | 9.26 ± 0.04 µM | 13.84 ± 0.06 µM | 13.6 ± 0.85 µM | 120.5 to 122.7 °C | 0.5 | 2.0 | 1.5 | 5.6 | 39.8 ± 6.32 µM | 1.1 | 4.3 | 10.5 ± 0.41 µM | 0.8 | 2.9 | 0.8 | 2.9 |
| COc1cccc(OC)c1/C=C/C(=O)c1ccc2c(c1)OCO2 [b20, (E)-1-(Benzo[d][1,3]dioxol-5-yl)-3-(2,6-dimethoxyphenyl)prop-2-en-1-one] | 22.5 ± 0.37 µM | 17.5 ± 0.54 µM | 16.2 ± 0.95 µM | 25.9 ± 0.65 µM | 19.5 ± 0.9 µM | 138.6 to 140.4 °C | 0.6 | 2.7 | 0.8 | 3.5 | 60.9 ± 5.61 µM | 0.9 | 3.8 | 14.2 ± 1.06 µM | 0.5 | 2.4 | 0.7 | 3.1 |
| COc1cccc(OC)c1/C=C/C(=O)c1ccc2c(c1)CCO2 [b21, (E)-1-(2,3-Dihydrobenzofuran-5-yl)-3-(2,6-dimethoxyphenyl)prop-2-en-1-one] | 22.6 ± 2.1 µM | 17.3 ± 0.23 µM | 21.6 ± 0.43 µM | 24.4 ± 0.6 µM | 22.3 ± 0.99 µM | 118.8 to 120.2 °C | 0.6 | 2.5 | 0.8 | 3.3 | 57.5 ± 13.6 µM | 0.7 | 2.7 | 14.6 ± 0.81 µM | 0.6 | 2.4 | 0.7 | 2.6 |
